Tests used:
[1] = system: cardiac allograft in presensitized rats; conditions: cyclosporin A 10 mg/kg/day i.m., sCR1 15 mg/kg single i.v. bolus; cited from earlier work
[2] = system: C3H heart allografts in presensitized BALB/c recipients; test: C3H heart allograft survival and histology in skin-presensitized BALB/c recipients (Examples 1-2); assay type: in vivo, mouse; conditions: FIG. 2A
Description: Rejection was defined as complete necrosis of the skin grafts.
Specimens were then embedded in paraffin, and sectioned for H&E staining. The microscopic sections were examined in a blinded fashion for severity of rejection by a pathologist. Criteria for graft rejection included the presence of vasculitis, thrombosis, hemorrhage and lymphocyte infiltration. These changes were scored as: 0, no change; 1, minimum change; 2, mild change; 3, moderate change; or 4, marked change.

[3] = system: C3H heart allografts in presensitized BALB/c recipients; test: Immunoperoxidase staining of heart allografts in presensitized mouse recipients at necropsy; assay type: in vivo; parameters: key: 0, negative; 1+, equivocal; 2+, weak; 3+, moderate; 4+, intense; conditions: heart allograft, POD 3
Description: Immunohistochemistry Four micrometer sections were cut from tissue samples embedded in Tissue-Tek O.C.T gel (Optimum Cutting Temperature, Skura Finetek, Torrance, Calif.) mounted on gelatin-coated glass microscope slides and stained by a standard indirect avidin-biotin immunoperoxidase staining method using an Elite Vcctastain ABC kit (Vector Laboratories Inc., Burlingame, Calif.). Specimens were stained for CD4^+ and CD8^+ cells with biotin-conjugated rat anti-mouse CD4 mAb (clone YTS 191.1.2, Cedarlane Laboratories Ltd., Hornby, Ontario, Canada) and biotin-conjugated rat anti-mouse CD8 mAb (clone 53-6.7, Pharmingen, Franklin Lakes, N.J.), respectively. Intragraft monocyte/macrophage infiltration was detected by staining with biotin-conjugated rat anti-mouse Mac-1 mAb (Cedarlane Laboratories Ltd., Hornby, Ontario, Canada). Mouse IgG and IgM deposition in gratis was detected using biotin-conjugated goat anti-mouse-IgG and goat anti-mouse-IgM (Cedarlane). For identification of complement deposition, sections were serially incubated with goat anti-C3 or anti-C5 polyclonal Abs (Quidel, San Diego, Calif.), biotinylated rabbit anti-goat IgG (Vector Laboratories), and HRP-conjugated-streptavidin (Zymed Laboratories, South San Francisco, Calif.). Slides were washed with phosphate-buffered saline between steps, and examined under light microscopy. Negative controls were performed by omitting the primary antibodies. The immunostaining was scored in five high-power fields of each section, and five independent experiments were performed. The sections of immunoperoxidase staining were graded from 0 to 4+ according to the staining intensity: 0, negative; 1+, equivocal; 2+, weak staining; 3+, moderate staining; and 4+, very intensive staining.

[4] = system: C3H kidney allografts in presensitized BALB/c recipients; conditions: for nephrotoxicity: kidney allograft model development
Description: Animals Male adult C3H (H-2^k) mice and BALB/c (H-2^d mice (Jackson Labs, Bar Harbor, Me.) weighing 25-30 g were chosen as donors and recipients, respectively. Animals were housed under conventional conditions at the Animal Care Facility, The University of Western Ontario, and were cared for in accordance with the guidelines established by the Canadian Council on Animal Care.
Skin Presensitization Full-thickness skin grafts taken from C3H donors were cut into 1×1 cm^2 pieces and transplanted onto the backs of BALB/c recipient mice. Rejection was defined as complete necrosis of the skin grafts.
The donor ureter was also sutured to the recipient bladder using 10-0 sutures. The native kidneys were removed immediately after grafting. Graft rejection leading to host death was used as the endpoint of rejection for kidney transplants.
Measurement of Serum Creatinine Serum samples were obtained at study endpoint (time of rejection or POD100) after kidney transplantation. Serum creatinine levels were quantitated in 10 μL samples using the Sigma Diagnostics (Sigma, St. Louis, Mo.) procedure, which measures creatinine by a kinetic modification of the Jaffe reaction (Junge et al., 2004). Graft Histology At necropsy, tissue samples were processed for hematoxylin and eosin (H&E) staining (Wang et al, JI 2003) and evaluated for vasculitis, thrombosis, hemorrhage and lymphocyte infiltration; changes were scored as: 0, none; 1, minimal; 2, mild; 3, moderate or 4, marked compared to normal tissues.

[5] = system: C3H heart allografts in presensitized BALB/c mice; test: Heart allograft survival, accelerated rejection in presensitized model (Example 4); assay type: in vivo, mouse; conditions: presensitized recipients
Description: In these experiments, the presensitization was brought about by prior transplantation of a skin graft. In general, presensitization can occur not only as a result of having received an earlier allograft, but can also be caused by having received multiple blood transfusions or in women who have been pregnant. Besides such presensitization methods, allografts with an ABO mismatch will be rapidly attacked and rejected because of preformed antibodies to the ABO antigens unless steps are taken to prevent such an attack.
(§1) This model is designed to mimic presensitized transplantation in humans, especially in relation to accelerated humoral rejection. Recipient mice were split into eight groups of six to eight mice each. The treatments were as follow.
Group 3″ (BB5.1 alone)—mice were administered the anti-mouse complement monoclonal antibody BB5.1 at a dose of 40 mg/kg body weight delivered intraperitoneally on a daily basis beginning at day −1 and continuing until the endpoint.
Group 4″ (cyclophosphamide alone)—mice were administered cyclophosphamide intravenously at a dose of 40 mg/kg body weight on each of days 0 and 1.
Group 6″ (BB5.1 plus cyclophosphamide)—mice were administered BB5.1 intraperitoneally at a dose of 40 mg/kg body weight on a daily basis beginning at day −1 and continuing until the endpoint. […]

[6] = system: C3H heart allografts in presensitized BALB/c mice; test: Histological changes of heart allografts at necropsy (Example 4); assay type: in vivo, mouse; conditions: endpoint, score 0 normal to 4 marked change
Description: as §1

[7] = system: circulating anti-donor IgG and IgM antibodies; test: Flow cytometry of circulating anti-donor antibodies (heart model); assay type: in vivo, mouse; conditions: POD3, presensitized heart recipients, FIG. 4A
Experimental: Flow Cytometry The circulating anti-donor specific IgG and IgM antibodies were evaluated in the recipient serum by FACScan flow cytometry (Becton Dickinson, Mountain View, Calif.). Glotz et al., (1993); Tyan et al. (1994). Briefly, C3H mouse splenocytes were isolated and incubated at 37° C. for 30 minutes with serum from naive control and experimental groups. To stain for total IgG, IgG1, IgG2a, IgG2b and IgM, the cells were washed and incubated with FITC-conjugated goat antibody specific for the Fc portion of mouse IgG or with phycoerythrin-conjugated goat antibody specific for the μ-chain of mouse IgM (Jackson ImmunoResearch Laboratories, West Grove, Pa.), or with FITC-conjugated goat anti-mouse IgG1 (CALTAG Laboratories, Burlingame, Calif.), or with FITC-conjugated goat anti-mouse IgG2a (CALTAG), or with FITC-conjugated goat anti-mouse IgG2b (CALTAG). After 1 hour of staining at 4° C., the cells were washed with PBS, resuspended at 5×10^6/mL, and analyzed by flow cytometry for mean channel fluorescence intensity, which represents the antibody-binding reactivity.

[8] = system: terminal complement activity; test: Complement hemolytic assay of recipient mouse sera (heart model); assay type: in vivo; conditions: POD3, presensitized heart recipients, FIG. 3
Experimental: Complement Hemolytic Assay The purified anti-C5 mAb was serially diluted twofold (175-0.1 μg/ml) in GVB^2+ buffer (gelatin Veronal-buffered saline: 0.1% gelatin, 141 mM NaCl, 0.5 mM MgCl2, 0.15 mM CaCl2, and 1.8 mM sodium barbital) and added in triplicate (50 μl/well) to a 96-well plate. BALB/c mouse serum was diluted to 40% v/v with GVB^2+ buffer and added ([…]) to the rows of the same 96-well plate such that the final concentration of BALB/c mouse serum in each well was 20%. The plate was then incubated at room temperature for approximately 30 min while chicken erythrocytes were prepared. Chicken erythrocytes were washed 5×1 ml with GVB^2+ buffer and resuspended to a final concentration of 5×10^7/ml in GVB^2+. Four milliliters of the chicken erythrocytes were sensitized by adding anti-chicken RBC polyclonal antibody (Intercell Technologies, Hopewell, N.J., 0.1% v/v) and the cells were incubated at 4° C. for 15 min with frequent vortexing. The cells were then washed 2×1 ml with GVB^2+ and resuspended to a final volume of 2.4 ml in GVB^2+. […] The plate was read at OD 415 nm using a microplate reader and the percentage of hemolysis was determined using this formula: […]
In the current study, terminal complement activity was measured by assessing the ability of recipient mouse sera to lyse antibody presensitized chicken erythrocytes and was compared at the same time-point (POD3).

[9] = system: Bcl-2 and Bcl-xl proteins; test: Western blot of kidney grafts; assay type: in vivo, mouse; conditions: POD100 (accommodated) or rejected grafts, FIG. 14
Description: Western Blot Analysis Frozen kidney samples were sonicated, separated by electrophoresis and transferred to polyvinylidene difluoride (PVDF; Invitrogen) membranes. Intragraft expression of Bcl-2 and Bcl-XS/L was detected using the polyclonal sera N-19 and M-125, respectively (Santa Cruz Biotechnology, Inc.). Polyclonal anti-calsequestrin (Calbiochem) served as a sample loading control (Kobayashi et al., 1999). Antibody binding was detected by horseradish-peroxidase-conjugated goat anti-rabbit IgG and enhanced chemiluminescence development (Roche Laboratories) (Arp et al., 1996).

[10] = system: circulating anti-donor IgG and IgM antibodies; test: Flow cytometry of circulating anti-donor antibodies (kidney model); assay type: in vivo, mouse
Experimental: Flow Cytometry Circulating anti-donor specific IgG and IgM antibodies were evaluated in recipient sera by flow cytometry. Briefly, C3H mouse splenocytes were isolated and incubated at 37° C. for 30 minutes with serum samples obtained at the indicated timepoints from mice from the various treatment groups. To stain for total IgG or specific antibody subclasses, the washed cells were incubated with FITC-conjugated goat anti-mouse antibodies specific for the Fc portion of mouse IgG, mouse IgG1, mouse IgG2a, mouse IgG2b or mouse IgG3 (all from (CALTAG Laboratories, Burlingame, Calif.) or with a phycoerythrin-conjugated goat antibody specific for mouse IgM (Jackson ImmunoResearch Laboratories, West Grove, Pa.) for 1 hour at 4° C., washed and analyzed on a FACScan flow cytometer (Becton Dickinson, Mountain View, Calif.) (Collins et al., 1999; Pratt et al., 1996). The results are expressed as mean channel fluorescence intensity as a measure of the level of each anti-donor isotype in the samples.

[11] = system: terminal complement activity; test: Complement hemolytic assay of recipient mouse sera (kidney model); assay type: in vivo; conditions: POD7, presensitized kidney recipients, FIG. 12
Experimental: Complement Hemolytic Assay Terminal complement activity in recipient mouse sera was determined by standard methods to assess the ability of sera to lyse chicken erythrocytes presensitized with erythrocyte-specific antibodies as previously described (Wang et al., 1999).

[12] = system: C3H kidney allografts in presensitized BALB/c recipients; test: Immunoperoxidase staining of kidney allografts in presensitized mouse recipients at necropsy; assay type: in vivo; parameters: key: 0, negative; 1+, equivocal; 2+, weak; 3+, moderate; 4+, intense; conditions: kidney allograft, at the time of rejection
Description: Immunohistochemistry Tissue samples embedded in Optimum Cutting Temperature (O.C.T.) gel (Skura Finetek, Torrance, Calif.) were sectioned and stained for CD4^+, CD8^+ and Mac-1^+ infiltrating cells and for IgG, IgM, C3 and C5 deposition using an Elite Vectastain ABC kit (Vector Laboratories Inc., Burlingame, Calif.). Primary biotinylated antibodies included anti-CD4 (YTS 191.1.2, Cedarlane Laboratories Ltd., Hornby, Ontario, Canada), anti-CD8 (53-6.7, BD Biosciences, Franklin Lakes, N.J.) and anti-Mac-1 (Cedarlane). Intragraft IgG and IgM deposition was detected using biotinylated goat anti-mouse-IgG and goat anti-mouse-IgM (Cedarlane). Complement deposition was detected following serial incubation with goat anti-mouse C3 or anti-mouse C5 polyclonal Abs (Quidel, San Diego, Calif.), biotinylated rabbit anti-goat IgG (Vector Laboratories), and HRP-conjugated-streptavidin (Zymed Laboratories, South San Francisco, Calif.). Negative controls were performed by omitting the primary antibodies. The immunostaining was scored in five high-power fields of each section using tissue samples from five animals per experimental group. Immunoreactivity was graded from 0 to 4+ according to staining intensity as follows: 0, negative; 1+, equivocal; 2+, weak; 3+, moderate; and 4+, very intensive staining.

sCR1: soluble complement receptor 1, binds complements C3b and C4b
average time of graft rejection [1]: 44 days

O=P1(N(CCCl)CCCl)NCCCO1 (centres unmarked) [CyP, cyclophosphamide]
heart graft survival (time to rejection) [2]: 3.3 ± 0.5 days | C3 immunoperoxidase staining grade [3]: 3+ | C5 immunoperoxidase staining grade [3]: 3+ | CD4 immunoperoxidase staining grade [3]: 1+ | CD8 immunoperoxidase staining grade [3]: 1+ | IgG immunoperoxidase staining grade [3]: 3+ | IgM immunoperoxidase staining grade [3]: 1+ | Mac-1 immunoperoxidase staining grade [3]: 3+ | nephrotoxicity [4]: significant nephrotoxicity | Mean survival time [5]: 3.3 ± 0.5 days | Hemo (hemorrhage) median score [6]: 2.0 | Infar (infarction) median score [6]: 4.0 | Lymph (lymphocyte infiltration) median score [6]: 0.0 | Throm (thrombosis) median score [6]: 3.0 | Vasc (vasculitis) median score [6]: 2.0 | circulating anti-donor IgG levels [7]: partially down-regulated | terminal complement activity (lysis of antibody presensitized chicken erythrocytes by recipient sera) [8]: no effect

C[C@@H](N)CCNCCCCNC(=O)OCC(=O)NCCCCCCNC(=N)N [LF, LF15-0195]
expression of Bcl-2 and Bcl-xl proteins in kidney grafts [9]: undetectable | nephrotoxicity [4]: not associated with nephrotoxicity | kidney graft survival (time to rejection) ([4]; presensitized recipients, FIG. 11A): 6.0 ± 1.0 days | circulating anti-donor IgG levels ([10]; kidney recipients at time of rejection, triple-therapy POD 100, FIG. 13A): partially reduced | predominant anti-donor IgG subclass ([10]; presensitized kidney recipients, FIG. 13B): IgG1, IgG2a and IgG3 | terminal/serum complement activity (in vitro serum hemolytic assay) [11]: no inhibitory effect | C3 immunoperoxidase staining [12]: 3+ | C5 immunoperoxidase staining [12]: 3+ | IgG immunoperoxidase staining [12]: 3+ | IgM immunoperoxidase staining [12]: 1+ | Mac-1 immunoperoxidase staining [12]: 4+
